Laboratory results: PubChem BioAssay (NCI)
Where “and” joins values, the source holds several entries; their conditions need not be identical. Equal values may be shown once.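 These data come from cells grown in 96-well plates and exposed to compound for 48 hours at five concentrations. GI50 is the concentration that inhibits growth by half. At the TGI there is no net growth.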

Legend:
Experiment in all cases: growth of human tumour cells (NCI), 48 h
HCC-2998 colon = system: HCC-2998 colon
SR leukemia = system: SR leukemia
M14 melanoma = system: M14 melanoma
NCI/ADR-RES ovarian = system: NCI/ADR-RES ovarian
HT29 colon = system: HT29 colon
OVCAR-3 ovarian = system: OVCAR-3 ovarian
OVCAR-4 ovarian = system: OVCAR-4 ovarian
UACC-257 melanoma = system: UACC-257 melanoma
T-47D breast = system: T-47D breast
U251 CNS = system: U251 CNS
SK-MEL-2 melanoma = system: SK-MEL-2 melanoma
MDA-MB-435 = system: MDA-MB-435
SN12C renal = system: SN12C renal
NCI-H23 lung = system: NCI-H23 lung
HL-60(TB) leukemia = system: HL-60(TB) leukemia
HCT-116 colon = system: HCT-116 colon
SNB-75 CNS = system: SNB-75 CNS
LOX IMVI melanoma = system: LOX IMVI melanoma
A498 renal = system: A498 renal
TK-10 renal = system: TK-10 renal
NCI-H522 lung = system: NCI-H522 lung
OVCAR-5 ovarian = system: OVCAR-5 ovarian
NCI-H460 lung = system: NCI-H460 lung
CCRF-CEM leukemia = system: CCRF-CEM leukemia
HOP-62 NSCLC = system: HOP-62 NSCLC
NCI-H226 lung = system: NCI-H226 lung
EKVX NSCLC = system: EKVX NSCLC
SF-295 CNS = system: SF-295 CNS
COLO 205 colon = system: COLO 205 colon
BT-549 breast = system: BT-549 breast
MCF7 breast = system: MCF7 breast
SK-MEL-28 melanoma = system: SK-MEL-28 melanoma
MOLT-4 leukemia = system: MOLT-4 leukemia
HCT-15 colon = system: HCT-15 colon
SF-268 CNS = system: SF-268 CNS
SNB-19 CNS = system: SNB-19 CNS
SK-OV-3 ovarian = system: SK-OV-3 ovarian
MDA-MB-231 breast = system: MDA-MB-231 breast
MALME-3M melanoma = system: MALME-3M melanoma
UACC-62 melanoma = system: UACC-62 melanoma
SK-MEL-5 melanoma = system: SK-MEL-5 melanoma
OVCAR-8 ovarian = system: OVCAR-8 ovarian
A549 NSCLC = system: A549 NSCLC
DU-145 prostate = system: DU-145 prostate
SF-539 CNS = system: SF-539 CNS
CAKI-1 renal = system: CAKI-1 renal
PC-3 prostate = system: PC-3 prostate
HS 578T breast = system: HS 578T breast
IGROV1 ovarian = system: IGROV1 ovarian
RPMI-8226 leukemia = system: RPMI-8226 leukemia
HOP-92 NSCLC = system: HOP-92 NSCLC
786-0 renal = system: 786-0 renal
K-562 leukemia = system: K-562 leukemia
KM12 colon = system: KM12 colon
RXF 393 renal = system: RXF 393 renal
SW-620 colon = system: SW-620 colon
UO-31 renal = system: UO-31 renal
ACHN renal = system: ACHN renal

With `CO[C@@H](C(=O)N1Cc2[nH]nc(NC(=O)c3ccc(N4CCN(C)CC4)cc3)c2C1)c1ccccc1` the GI50 (HCC-2998 colon) was 525 nM and 503 nM, the TGI (HCC-2998 colon) was 46000 nM and > 10000 nM and the GI50 (SR leukemia) was 56.9 nM and 39.5 nM. For the same molecule, the TGI (SR leukemia) was greater than 35600 nM, the GI50 (M14 melanoma) was 3730 nM and 2340 nM and the TGI (M14 melanoma) was 23400 nM and > 10000 nM. For the same molecule, the GI50 (NCI/ADR-RES ovarian) was greater than 100000 nM, the TGI (NCI/ADR-RES ovarian) was greater than 100000 nM and the GI50 (HT29 colon) was 713 nM and 658 nM. The TGI (HT29 colon) was 2650 nM and 8970 nM, the GI50 (OVCAR-3 ovarian) was 866 nM and 1130 nM and the TGI (OVCAR-3 ovarian) was greater than 87000 nM. The GI50 (OVCAR-4 ovarian) was 610 nM and 2820 nM, the TGI (OVCAR-4 ovarian) was greater than 52400 nM and the GI50 (UACC-257 melanoma) was 613 nM and 1060 nM. For the same molecule, the TGI (UACC-257 melanoma) was 18900 nM and > 10000 nM, the GI50 (T-47D breast) was 792 nM and 538 nM and the TGI (T-47D breast) was 69300 nM and > 10000 nM. For the same molecule, the GI50 (U251 CNS) was 2160 nM and 1510 nM, the TGI (U251 CNS) was greater than 50100 nM and the GI50 (SK-MEL-2 melanoma) was 4330 nM and 6860 nM. The TGI (SK-MEL-2 melanoma) was 33100 nM and > 10000 nM, the GI50 (MDA-MB-435) was 2690 nM and 3080 nM and the TGI (MDA-MB-435) was 17400 nM and > 10000 nM. For the same molecule, the TGI (SN12C renal) was greater than 100000 nM, the GI50 (NCI-H23 lung) was 764 nM and 609 nM and the TGI (NCI-H23 lung) was 23700 nM and > 10000 nM. For the same molecule, the GI50 (HL-60(TB) leukemia) was 3250 nM and 4350 nM, the TGI (HL-60(TB) leukemia) was 28300 nM and > 10000 nM and the GI50 (HCT-116 colon) was 117 nM and 87.9 nM. The TGI (HCT-116 colon) was 6670 nM and > 8710 nM, the GI50 (SNB-75 CNS) was 215 nM and the TGI (SNB-75 CNS) was 1660 nM. For the same molecule, the GI50 (LOX IMVI melanoma) was 255 nM and 82.5 nM, the TGI (LOX IMVI melanoma) was 2050 nM and 1820 nM and the GI50 (A498 renal) was 69.6 nM and 317 nM. The TGI (A498 renal) was 1320 nM and 3620 nM, the GI50 (TK-10 renal) was 3280 nM and 2780 nM and the TGI (TK-10 renal) was 67200 nM and > 10000 nM. The GI50 (NCI-H522 lung) was 469 nM and 163 nM, the TGI (NCI-H522 lung) was 45500 nM and > 10000 nM and the GI50 (OVCAR-5 ovarian) was 1350 nM and 850 nM. The TGI (OVCAR-5 ovarian) was greater than 68800 nM, the GI50 (NCI-H460 lung) was 224 nM and 99.7 nM and the TGI (NCI-H460 lung) was 18000 nM and > 10000 nM. For the same molecule, the TGI (CCRF-CEM leukemia) was greater than 100000 nM, the GI50 (HOP-62 NSCLC) was 1040 nM and 585 nM and the TGI (HOP-62 NSCLC) was 19300 nM and > 10000 nM. The GI50 (NCI-H226 lung) was 360 nM and 80.4 nM, the TGI (NCI-H226 lung) was 49300 nM and > 8910 nM and the GI50 (EKVX NSCLC) was 1730 nM and 1890 nM. The TGI (EKVX NSCLC) was 37600 nM and > 10000 nM, the GI50 (SF-295 CNS) was 715 nM and 146 nM and the TGI (SF-295 CNS) was greater than 100000 nM. For the same molecule, the GI50 (COLO 205 colon) was 48.3 nM and 39.5 nM, the TGI (COLO 205 colon) was 1030 nM and 625 nM and the GI50 (BT-549 breast) was 809 nM and 1390 nM. For the same molecule, the TGI (BT-549 breast) was 5900 nM and > 10000 nM, the GI50 (MCF7 breast) was 104 nM and 73.6 nM and the TGI (MCF7 breast) was 23100 nM and > 10000 nM. For the same molecule, the GI50 (SK-MEL-28 melanoma) was 3110 nM and 2720 nM, the TGI (SK-MEL-28 melanoma) was 20900 nM and > 10000 nM and the GI50 (MOLT-4 leukemia) was 12600 nM and 2300 nM. For the same molecule, the TGI (MOLT-4 leukemia) was greater than 81100 nM, the GI50 (HCT-15 colon) was 18800 nM and > 10000 nM and the TGI (HCT-15 colon) was greater than 100000 nM. For the same molecule, the GI50 (SF-268 CNS) was 1060 nM and 889 nM, the TGI (SF-268 CNS) was 8080 nM and 4640 nM and the GI50 (SNB-19 CNS) was 4020 nM and 2930 nM. The TGI (SNB-19 CNS) was greater than 100000 nM, the GI50 (SK-OV-3 ovarian) was 591 nM and 863 nM and the TGI (SK-OV-3 ovarian) was greater than 41200 nM. The GI50 (MDA-MB-231 breast) was 562 nM and 142 nM, the TGI (MDA-MB-231 breast) was greater than 70500 nM and the GI50 (MALME-3M melanoma) was 509 nM and 4410 nM. For the same molecule, the TGI (MALME-3M melanoma) was 22900 nM and > 10000 nM, the GI50 (UACC-62 melanoma) was 548 nM and 482 nM and the TGI (UACC-62 melanoma) was 50500 nM and > 10000 nM. For the same molecule, the GI50 (SK-MEL-5 melanoma) was 1650 nM and 2760 nM, the TGI (SK-MEL-5 melanoma) was 12100 nM and > 10000 nM and the GI50 (OVCAR-8 ovarian) was 2270 nM and 1840 nM. The TGI (OVCAR-8 ovarian) was greater than 100000 nM, the GI50 (A549 NSCLC) was 419 nM and 158 nM and the TGI (A549 NSCLC) was greater than 69600 nM. For the same molecule, the GI50 (DU-145 prostate) was 2020 nM and 1930 nM, the TGI (DU-145 prostate) was 17900 nM and > 10000 nM and the GI50 (SF-539 CNS) was 459 nM and 105 nM. The TGI (SF-539 CNS) was 12000 nM and 5630 nM, the GI50 (CAKI-1 renal) was 19600 nM and > 10000 nM and the TGI (CAKI-1 renal) was greater than 91400 nM. For the same molecule, the GI50 (PC-3 prostate) was 1530 nM and 2530 nM, the TGI (PC-3 prostate) was 40700 nM and > 10000 nM and the GI50 (HS 578T breast) was 1370 nM and 232 nM. The TGI (HS 578T breast) was 7920 nM and 859 nM, the GI50 (IGROV1 ovarian) was 282 nM and 62.4 nM and the TGI (IGROV1 ovarian) was 3010 nM and 2950 nM. For the same molecule, the GI50 (RPMI-8226 leukemia) was 7040 nM and 5810 nM, the TGI (RPMI-8226 leukemia) was greater than 52500 nM and the GI50 (HOP-92 NSCLC) was 153 nM and 63.9 nM. The TGI (HOP-92 NSCLC) was 731 nM and 1240 nM, the GI50 (786-0 renal) was 2550 nM and 2000 nM and the TGI (786-0 renal) was 31400 nM and > 10000 nM. The GI50 (K-562 leukemia) was 106 nM and 54.7 nM, the TGI (K-562 leukemia) was greater than 100000 nM and the GI50 (KM12 colon) was 216 nM and 125 nM. For the same molecule, the TGI (KM12 colon) was 7090 nM and > 8180 nM, the GI50 (RXF 393 renal) was 593 nM and 312 nM and the TGI (RXF 393 renal) was 3720 nM and 2090 nM. For the same molecule, the GI50 (SW-620 colon) was 314 nM and 129 nM, the TGI (SW-620 colon) was 22300 nM and > 10000 nM and the GI50 (UO-31 renal) was 9330 nM and 3670 nM. The TGI (UO-31 renal) was 33800 nM and > 10000 nM, the GI50 (ACHN renal) was 4970 nM and 6660 nM and the TGI (ACHN renal) was greater than 69600 nM.
